Assay: Particle size distribution in a dry dispersion (Sympatec Helos, method AM-PE 69)
Format: physicochemical
Settings: cumulative undersize distribution by volume
Protocol: It turned out that the crystalline form of N-cyclopropyl-4-{6-(2,3-difluor-4-methoxyphenoxy)-8-[(3,3,3-trifluorpropyl)amino]imidazo[1,2-b]pyridazin-3-yl}-2-methylbenzamide prepared by the method of the present invention comprising steps (a) to (g), supra, is characterized by an advantageous particle size distribution. […] The particle size distribution was determined in a dry dispersion using the device “Sympatec Helos” and the method “AM-PE 69” (Pharmdoss).
Batch Nos. 1 to 5 were prepared by the method of the present invention comprising steps (a) to (c), supra. In case of Batch Nos. 2 to 5, the preparation method comprised the additional steps (d) to (g) (in case of Batch No. 1 steps (d) to (g) were not applied).
It can be clearly seen that the particles of Batch Nos. 2 to 5 are smaller than the particles of Batch No. 1 and the distribution is more uniform. In case of Batch Nos. 2 to 5, further micronization of the particles might not be necessary in order to increase the solubility or bioavailability of the final drug.

[1] = listed as 2, prepared with steps (d) to (g)
[2] = prepared without steps (d) to (g)
[3] = listed as 4, prepared with steps (d) to (g)
[4] = listed as 5, prepared with steps (d) to (g)

X10 (particle size distribution) [3]	X50 (particle size distribution) [3]	X90 (particle size distribution) [3]	X10 (particle size distribution) [4]	X50 (particle size distribution) [4]	X90 (particle size distribution) [4]	X10 (particle size distribution) (prepared with steps (d) to (g))	X50 (particle size distribution) (prepared with steps (d) to (g))	X90 (particle size distribution) (prepared with steps (d) to (g))	Molecule	X10 (particle size distribution) [1]	X50 (particle size distribution) [1]	X90 (particle size distribution) [1]	X10 (particle size distribution) [2]	X50 (particle size distribution) [2]	X90 (particle size distribution) [2]
									6,8-Bis(2,3-difluoro-4-methoxyphenoxy)-3-iodoimidazo[1,2-b]pyridazine [Example 1]	1.4 μm	5.3 μm	36.1 μm	2.0 μm	18.2 μm	249.0 μm
1.3 μm	4.2 μm	13.2 μm	1.2 μm	4.0 μm	12.4 μm	1.2 μm	4.1 μm	9.9 μm	COc1ccc(Oc2cc(Oc3ccc(OC)c(F)c3F)c3ncc(-c4ccc(C(=O)NC5CC5)c(C)c4)n3n2)c(F)c1F [Example 3, 4-[6,8-bis(2,3-difluoro-4-methoxyphenoxy)imidazo[1,2-b]pyridazin-3-yl]-N-cyclopropyl-2-methylbenzamide]						
